Measurements reported in patent US20240299504A1, “COMPOSITIONS AND METHODS FOR TREATING ALZHEIMERS DISEASE” (priority 2023, published 2024).

Key:
[1] = test system: GFAP+ astrocytes; experiment: Co-immunostaining ThioS/GFAP, reactive astrocytes; type: in vivo, mouse
Method: (§1) Parathyroid hormone (human) was purchased from TOCRIS Bioscience (Cat #3011/1, Abingdon, United Kingdom). WT or 5×FAD mice (both male and female) were treated with PTH1-34 intermittently [once daily injection of hPTH1-34 (50 μg/Kg) or vehicle (0.9% sodium chloride) (as a control) by subcutaneous injection, starting at 2-MO, 5 days per week] as described previously. Mice were then subjected to behavioral tests and sacrificed for examinations of their bone and brain phenotypes at the indicated ages.
(§2) DAPI was used for nucleus staining.

[2] = test system: ATG9A+ dystrophic neurites; experiment: Co-immunostaining ThioS/ATG9A, plaque-associated dystrophic neurites; type: in vivo, mouse; conditions: cortex and hippocampus, ~6 MO 5×FAD female mice vs Veh
Method: as §1, §2

[3] = test system: 5×FAD mice; experiment: Micro-computed tomography (μCT) of femurs, bone phenotype; type: in vivo, mouse; conditions: femur μCT, 6-MO female 5×FAD vs WT mice; hPTH1-34 50 μg/Kg s.c. once daily, 5 days per week from 2-MO
Method: as §1
Femurs of WT and 5×FAD female mouse with or without PTH1-34 treatment were detached and fixed overnight in 10% formalin and stored in PBS for further characterization by microCT (μCT). The excised femurs were placed vertically in a 12-mm-diameter scanning holder and scanned using the Scanco μCT40 (Scanco Medical AG). Settings parameters are adjusted as previously described: […], 55 kVp, and 145 μA with an integration time of 200 ms. For the cortical analysis, the bone was scanned at the midshaft of the bone for a scan of 25 slices, and the threshold for cortical bone was set at 329. The 3D reconstruction was performed using all outlined slices and analyzed by μCT evaluation program (v.6.5-2; Scanco Medical). Data were obtained on bone volume (BV), total volume (TV), BV/TV, bone density, and cortical thickness for cortical bone. […]

[4] = test system: 5×FAD astrocytes; experiment: Senescence markers in cultured astrocytes (RT-PCR, SA-β-gal staining); type: cell-based, mouse; conditions: cultured 5×FAD astrocytes, 100 ng/ml, 24 h
Method: (§3) Total RNA was extracted from cortex, hippocampus, or cultured astrocytes using a TRizol reagent (Invitrogen, cat #15596-026, Carlsbad, CA, USA) as previously described. Purified RNA (1-5 μg) was used for cDNA synthesis with the Revert Aid First Strand cDNA Synthesis Kit (Thermo Scientific, cat #K1621, Waltham, MA, USA). The cDNA products were subjected to subsequent quantitative PCR (qPCR) using the QuantiFast SYBR Green PCR Kit (QIA-GEN, cat #204057, Hilden, Germany) with a qPCR System (StepOne Plus). Each sample was repeated at least 3 times, and the mRNA level was normalized to GAPDH using the 2^−ΔΔCt method.
(§4) Astrocyte culture was performed according to the standard protocol with some modifications as described in previous literature. In brief, the cerebral cortex and hippocampus of postnatal day 3 (P3) female pups were dissected under a stereomicroscope and placed in ice-cold calcium- and magnesium-free HBSS (Hanks Balanced Salt Solution). The tissues were digested with 2.5% trypsin-EDTA, 3 ml for each mouse, at 37° C. for 20 min with shaking slightly every 5 min. […]
SA-β-gal staining of cultured astrocytes was performed as previously reported. […] The SA-β-gal intensity was quantified by the NIH ImageJ software.

[5] = test system: 5×FAD mice; experiment: Morris water maze (MWM); type: in vivo, mouse
Method: Parathyroid hormone (human) was purchased from TOCRIS Bioscience (Cat #3011/1, Abingdon, United Kingdom). […] Mice were then subjected to behavioral tests and sacrificed for examinations of their bone and brain phenotypes at the indicated ages. For Morris water maze (MWM), a circular water tank (diameter of 120 cm) fulfilled with water and a 10 cm platform were used. Non-toxic white powder paint was added to water to make the surface opaque to hide the escape platform. The maze was virtually divided into 4 quadrants, one of which contained the platform 1 cm below the water surface as an escape platform. Mice were trained for 5 days, four trials per day with 20 min intervals between trials and 60 s per trial to locate the hidden platform. Then mice were left on the platform for 15 s to help them remember the location. On the 6th day, the escape platform was removed and mice were placed in water at the point farthest from the platform and recorded for 60 s. The swimming track was recorded using a video tracking system, and the time spent in each platform quadrant and the number of platform crossings were quantified. All behavioral trials were recorded by use of an overhead camera and analyzed by Etho Vision software (Etho Vision, Noldus). Mice were assigned and data were quantified, in a double-blind method.

[6] = test system: 5×FAD astrocytes; experiment: RT-qPCR of cytokines and chemokines in cultured astrocytes; type: cell-based, mouse; conditions: cultured 5×FAD astrocytes, 100 ng/ml, 24 h
Method: as §3
as §4, with “min. The digested tissue was blown into single-cell suspension, filtered through a […] filter mesh, pelleted at 900×g for 5 min, and resuspended in growth medium (DMEM plus 10% FBS), which was incubated at 37° C. with 5% CO2.” for “min.”

[7] = test system: serum inflammatory cytokines; experiment: Mouse serum cytokine array; type: in vivo
Method: as §1
Serum samples from 5×FAD, Tg2576, and their WT control female mice (6˜MO) were collected and used for serum cytokine detection. Cytokines were measured with Mouse Cytokine Array Panel A (R&D Systems, cat #ARY006, Minneapolis, MN, USA). Briefly, the mixture of serum and the biotinylated detection antibodies cocktail is incubated with a Mouse Cytokine Array membrane. Any cytokine/detection antibody complex present was bound on the membrane by its cognate immobilized capture antibody. After washing off the unbound protein, streptavidin-horseradish peroxidase and chemiluminescent detection reagents were added to generate light signals. The light produced at each spot is proportional to the amount of cytokine binding.

CC[C@H](C)[C@H](NC(=O)[C@H](CCC(=O)O)NC(=O)[C@H](CO)NC(=O)[C@@H](NC(=O)[C@@H](N)CO)C(C)C)C(=O)N[C@@H](CCC(N)=O)C(=O)N[C@@H](CC(C)C)C(=O)N[C@@H](CCSC)C(=O)N[C@@H](Cc1cnc[nH]1)C(=O)N[C@@H](CC(N)=O)C(=O)N[C@@H](CC(C)C)C(=O)NCC(=O)N[C@@H](CCCCN)C(=O)N[C@@H](Cc1cnc[nH]1)C(=O)N[C@@H](CC(C)C)C(=O)N[C@@H](CC(N)=O)C(=O)N[C@@H](CO)C(=O)N[C@@H](CCSC)C(=O)N[C@@H](CCC(=O)O)C(=O)N[C@@H](CCCN=C(N)N)C(=O)N[C@H](C(=O)N[C@@H](CCC(=O)O)C(=O)N[C@@H](Cc1c[nH]c2ccccc12)C(=O)N[C@@H](CC(C)C)C(=O)N[C@@H](CCCN=C(N)N)C(=O)N[C@@H](CCCCN)C(=O)N[C@@H](CCCCN)C(=O)N[C@@H](CC(C)C)C(=O)N[C@@H](CCC(N)=O)C(=O)N[C@@H](CC(=O)O)C(=O)N[C@H](C(=O)N[C@@H](Cc1cnc[nH]1)C(=O)N[C@@H](CC(N)=O)C(=O)N[C@@H](Cc1ccccc1)C(=O)O)C(C)C)C(C)C [PTH1-34]
inhibition of glial cell activation (GFAP, IBA1), by sex ([1]; female and male 5×FAD mice, 6-MO): detectable in both female and male 5×FAD mice
GFAP+ fluorescence intensity ([1]; layers of cortex (except layer II/III) and DG region of hippocampus, ~6 MO female 5×FAD vs Veh): lower in PTH1-34 treated 5×FAD mice than that of Veh controls
effect on glial cells (GFAP, IBA1) ([1]; wild-type (WT) female mice, 6-MO): little effect
plaque-associated GFAP fluorescence ([1]; ~6 MO female 5×FAD cortex and hippocampus vs Veh): diminished
ATG9A+ dystrophic neurites [2]: smaller and less dense ATG9A+ dystrophic neurites
trabecular bone mass (Tb. BV/TV) [3]: more trabecular bone mass was induced in 5×FAD mice than that in WT mice
SA-β-gal+ astrocytes [4]: attenuated
p53 expression (RT-PCR) [4]: diminished
MWM, latency to reach hidden platform during training ([5]; 5×FAD female mice ~5-MO vs 5×FAD Veh): faster learning of the hidden platform during MWM tests
MWM, spatial memory (time in target quadrant, target zone crossovers) ([5]; 5×FAD female mice ~5-MO vs 5×FAD Veh, testing day): better spatial memory of the platform location
MWM, spatial learning and memory ([5]; 5×FAD male mice ~5-MO vs Veh): Little to no improvement
expression of cytokines or chemokines (TNF-α, TGF-β1, CCL5, GM-CSF, RANK) [6]: Nearly all these factors (except GM CSF) were reduced
elevated serum factors (IL-1rα, IL-2, IL-3, IL-4, IL-10, CXCL9, CCL3) ([7]; 6-MO 5×FAD female mice): all reduced
serum inflammation-associated factors IL1β, TNFα, TREM-1, CCL11, CCL5 ([7]; 6-MO 5×FAD female mice): reduced
serum factor CCL4 ([7]; 6-MO 5×FAD female mice (CCL4 decreased in 5×FAD)): restored
